Entries after “also recorded” stand apart in the source; their conditions may differ.
Tests used:
Assay type in all cases: in vivo, mouse
wildtype female mice = test: Daily intraperitoneal MSH analog in wildtype littermates: body weight, food intake (Example 2); conditions: for weight loss in wildtype littermates: 1 microgram i.p. daily, 16-day treatment
Protocol: (§1) To test initially for the effect of peripheral melanocortins on weight change, we selected the stable agonist [Ac-Cys^4, D-Phe^7, Cys^10]α-MSH (4-13) (described in Cody et al., 1985, J. Med. Chem. 28, 583-588; incorporated herein by reference in its entirety). Briefly, [Ac-Cys^4, D-Phe^7, Cys^10]α-MSH (4-13) amide, having the cysteines connected by a disulfide bridge, was obtained from Peninsula Laboratories, CA. Lyophilized powder was dissolved in water at 1 mg/ml, which was diluted in PBS to 10 μg/mL. During the experiments, mice were maintained on a normal 12 h/12 h light/dark cycle with food and water ad libitum. Mice were fed standard laboratory rodent diet (#5001).
(§2) In order to see whether the α-MSH analog has an effect on food intake, we compared weight change and food intake in these mice for one week (see bars in FIGS. 4A and 4B) under MSH analog treatment and after MSH analog treatment was stopped (FIGS. 4C and 4D). During one week under MSH analog treatment mutant mice lost 0.5 g, while wildtype littermates gained 0.3 g; the food intake during this time was equivalent in both groups (20.7 g in wildtypes, and 22.7 g in mutants).

POMC null mutant mice = test: Weight change and food intake under standard diet, MSH analog or high fat diet, POMC null mutant mice (Example 3); conditions: 1 or 2 μg i.p. once daily
Protocol: (§3) P values were determined by ANOVA. If the major component of weight regulation through the melanocortinergic pathway was the regulation of feeding behavior, the observed changes in body weight in is POMC null mutant mice should be paralleled by a similar pattern in food uptake. This, however, was not observed (FIGS. 5B and 5D and Table 1).

wildtype mice = test: Weight change and food intake under standard diet, MSH analog or high fat diet, wildtype mice (Example 3); conditions: 1 or 2 μg i.p. once daily
Protocol: as §3

ob/ob mutant mice [1] = test: Weight gain and food intake in ob/ob mutants treated with leptin, MSH analog or both (Example 5)
Protocol: Leptin deficient (ob/ob) mutants show both hyperphagia and “increased metabolic efficiency” as witnessed by their ability to gain weight even when pair-fed with normal congenic controls. To determine the effects of leptin and MSH on food intake and weight gain, four sets of ob/ob mutants were treated with leptin, an MSH analog, both together, or vehicle alone. The MSH analog [Ac-Cys^4, D-Phe^7, Cys^10]α-MSH (4-13) was purchased from Peninsula Laboratories (Belmont, Calif.). Mice were treated with daily injections of 7 micrograms of each, both or neither.

obese lep^ob/ob mice = test: Weight change in obese lep ob/ob mice treated with leptin, α-MSH analog or both (Example 4); conditions: 3 μg of each compound i.p. once daily; mice aged 2 months
Protocol: To assess a more general effect of peripheral melanocortin on adipocytes, another genetic form of obesity, in lep^ob/ob mice, was treated with the α-MSH analog. In this experiment, the mice received leptin or the α-MSH analog alone, and in combination.
Briefly, obese lep^ob/ob mice at age 2 months (2 per group) received daily either: (1) 3 μg of α-MSH analog (described in Examples 2 and 3 above); (2) 3 μg of recombinant mouse leptin; (3) 3 μg of α-MSH analog and 3 μg of recombinant mouse leptin in combination; or (4) saline. The compounds were delivered intraperitoneally once daily, 1-2 hours before the onset of darkness.

ob/ob mutant mice [2] = test: Core temperature of ob/ob mutants exposed to 4° C. after MSH analog (Example 5); conditions: 7 micrograms; 5 hours without food, then 4° C. for 65 minutes; v. vehicle
Protocol: In 1977, the decreased ability of ob/ob mutants to maintain body temperature at 4° C. was noted. This preceded the onset of obesity in these mice. In view of the evidence that MSH regulates adipocyte metabolism, the present inventors hypothesized that the low levels of circulating MSH in leptin deficient (ob/ob) mutants was responsible for the impaired thermal regulation. To test this, ob/ob mutants were injected with 7 micrograms of MSH analog or vehicle only as described above. The mice were left without food for 5 hours and then exposed to 4° C. for 65 minutes. Their core temperatures were measured periodically by transfer to a coldroom (4° C.) where core temperatures were measured using a digital thermometer fitted with a rectal probe (Atkins Technical Inc., Gainesville, Fla.). […] As the mice had no opportunity to eat between injection of the MSH analog and the cold challenge, food intake cannot be responsible for the altered thermal regulation.

[3] = tested on: POMC homozygous mutant female mice; test: Daily intraperitoneal MSH analog in POMC homozygous mutant mice: body weight, food intake, coat pigmentation (Example 2); conditions: for weight loss, % of excess weight by 2 weeks: p<0.05 at day 16
Protocol: as §1, §2
An effect of MSH could also be seen on coat pigmentation. […] Yellow coat pigmentation gradually reappeared after MSH treatment was terminated (data not shown).

[4] = tested on: ob/ob mutant mice (C57BL/6J-Lep^ob); test: Circulating MSH levels by RIA in ob/ob mutants after leptin (Example 5); conditions: leptin 7 microgram/day i.p.; two hours after the tenth daily injection
Protocol: To test the inductive ability of leptin on circulating MSH levels, ob/ob mutants (ob/ob mutant mice (C57BL/6J-Lep^ob) and congenic controls were purchased from the Jackson Laboratory, Bar Harbor, Me.) were treated with leptin (7 microgram/day) or with vehicle alone (Murine recombinant leptin was kindly provided by Dr. A. F Parlow through the National Hormone and Pituitary Program (NHPP); hormones were diluted to 70 micrograms per milliliter in PBS; mice were injected intraperitoneally with 0.1 mL). Two hours after the tenth daily injection, blood samples were drawn from the retro-orbital sinus and analyzed for MSH levels by RIA following the manufacturer's instructions (Peninsula Laboratories, Belmont, Calif.).

[5] = daily injections of 7 micrograms

With “[Ac-Cys^4, D-Phe^7, Cys^10]α-MSH (4-13) amide [MSH analog]” the “weight loss in wildtype littermates” value (wildtype female mice; listed as MSH-agonist) was “no significant weight loss”, the “weight loss in wildtype littermates” value (wildtype female mice; listed as α-MSH agonist) was “did not lose significant weight” and the “weight gained during one week under MSH analog treatment” value (wildtype female mice; second week of treatment, wildtype littermates) was 0.3 g. The “food intake during one week under MSH analog treatment” value (wildtype female mice; second week of treatment, wildtypes) was 20.7 g, the “weight gain in one week after MSH analog treatment had been stopped for two weeks” value (wildtype female mice; third week after termination, wildtype littermates) was 0.3 g and the “food intake in one week after MSH analog treatment had been stopped for two weeks” value (wildtype female mice; third week after termination, wildtypes) was 24.2 g. The “food intake under MSH analog” value (POMC null mutant mice) was “decreases food intake”, the “weight change under MSH analog” value (POMC null mutant mice) was “lose excess weight” and the “food intake under MSH analog” value (wildtype mice) was “decreases food intake”. The “weight regulation under MSH analog” value (wildtype mice) was “maintaining their body weight constant”, the “effect of MSH analog added to leptin on weight” value (ob/ob mutant mice [1]; 7 micrograms of each, daily) was “inability of peripheral MSH analog to supplement the weight reducing effect” and the “effect on weight gain compared with effect on food intake” value (ob/ob mutant mice [1]; [5]) was “greater on weight gain than on food intake”. The weight gain (ob/ob mutant mice [1]; [5]) was “effectively decreased weight gain; also recorded: decreases weight gain”, the “total weight change over a period of 10 days compared to untreated controls” value (obese lep^ob/ob mice) was “slowed weight gain by almost half” and the “core temperature / thermal homeostasis at 4° C.” value (ob/ob mutant mice [2]) was “maintained their core temperature much better; also recorded: increases thermal homeostasis”. For the same molecule, the “weight loss, % of excess weight by 2 weeks” value ([3]; 1 microgram (~1 nmol) i.p. daily, mutant female mice, listed as MSH-agonist) was 46 % of excess weight, the “weight loss, % of excess weight by 2 weeks” value ([3]; 1 microgram (~1 nmol) i.p. daily, mutant female mice, listed as α-MSH agonist) was “over 40 % of excess weight” and the “weight loss, % of excess weight within one week” value ([3]; 1 microgram (~1 nmol) i.p. daily, mutant female mice, p<0.1 at day 8) was 38 % of excess weight. The “time until mutant mice started to gain weight after MSH injections were stopped” value ([3]; after 16-day treatment) was “about 10 days”, the “weight regain after MSH injections were stopped” value ([3]; another two weeks after onset of regain) was “reached close to their pretreatment weight” and the “weight lost during one week under MSH analog treatment” value ([3]; second week of treatment, mutant mice) was 0.5 g. For the same molecule, the “food intake during one week under MSH analog treatment” value ([3]; second week of treatment, mutants) was 22.7 g, the “weight gained in one week after MSH analog treatment had been stopped for two weeks” value ([3]; third week after termination, mutant mice) was 1.7 g and the “food intake in one week after MSH analog treatment had been stopped for two weeks” value ([3]; third week after termination, mutants) was 35.7 g. The “excess food intake of mutants over wildtypes after treatment stop” value ([3]; third week after termination, p<0.005) was 11.5 g and the coat pigmentation ([3]; treated for two weeks) was “lost their yellowish tinge”.

B1: leptin: recombinant mouse leptin, product of the ob gene, provided through the National Hormone and Pituitary Program (protein, UniProt P41160 22-167, looked up)
Leptin: VPIQKVQDDTKTLIKTIVTRINDISHTQSVSAKQRVTGLDFIPGLHPILSLSKMDQTLAVYQQVLTSLPSQNVLQIANDLENLRDLLHLLAFSKSCSLPQTSGLQKPESLDGVLEASLYSTEVVALSRLQGSLQDILQQLDVSPEC
With B1 the weight gain (ob/ob mutant mice [1]; [5]) was “effectively decreased weight gain”, the “circulating MSH levels” value [4] was “approached those found in normal control mice; also recorded: induces almost normal levels of circulating MSH” and the “total weight change over a period of 10 days compared to untreated controls” value (obese lep^ob/ob mice) was “little effect on preventing further weight gain”.
